The values below come from publication PMC4523931, “Modulation of Aβ42 in vivo by γ-secretase modulator in primates and humans” (Alzheimer's Research & Therapy, 2015).

The subject of data set [1] is γ-secretase. Briefly: GSM activity in vitro: Aβ42 and total Aβ ELISA of conditioned media of CHO cells expressing APP-WT or APP-V717F. Particulars: for ED50 (in vitro GSM activity): Fig. 1. The class given is cell-based, Chinese hamster. From the text: Conditioned media were collected and Aβ42 and total Aβ levels were quantified by ELISA analyses. […] All experiments were repeated at least twice. Results are presented as mean ± range. GSM gamma-secretase modulator

Data set [2] addresses T1, γ-secretase (Macaca fascicularis, UniProt Q8HXW5).
T1 construct: γ-secretase complex can be modulated in primates; from tissue; host or cells: living cynomolgus monkeys; Aβ read out in CSF and plasma
Briefly: Aβ levels in CSF and plasma of conscious cynomolgus monkeys after a single dose. The following applies: monkey CSF, 30 mg/kg oral. Type of data set: in vivo, cynomolgus monkeys (Macaca fascicularis).

In data set [3] the test system is γ-secretase. More on the design: method as in PMID 17962197. Particulars: APP transgenic mice, cited from earlier work.
The target in data set [4] is T1, γ-secretase. Briefly: Aβ levels in CSF and plasma of conscious cynomolgus monkeys after a single dose. The class given is in vivo, cynomolgus monkeys (Macaca fascicularis). Here is the method: The effects of drugs on CSF and plasma Aβ ratios in monkeys and plasma Aβ ratios in humans were analyzed by a two-way analysis of variance with a post hoc Bonferroni posttest (GraphPad Prism, La Jolla, CA, USA).
Aβ42, Aβ38 and total Aβ levels in CSF samples were measured. During the observation period, there was variation in Aβ levels in untreated animals (Fig. 2a–c) without a clear diurnal pattern, consistent with the reports from catheter studies in humans. Animals were then treated with drugs in subsequent weeks sequentially. Between each treatment, all animals were rested for 1 week to allow drug washout. […] In light of the CSF results, the effects of GSM-1 were mirrored in plasma. […] This was evident as early as 2 h following drug administration and plateaued starting at 4 h. GSM-1 reduced the ratio of Aβ42/Aβ40 up to 40 % at 6 h after dosing.
Cerebrospinal fluid (CSF) and plasma samples were collected at indicated time points and amyloid beta-peptide (Aβ) levels were measured. Levels of total Aβ (a), Aβ42 (b) and Aβ38 (c) were compared in CSF samples. […] The levels and ratios were normalized to baseline (time 0 or before drug dosing) and shown as percentages of baseline. Seven monkeys were used in the no-treatment group. […] Results are presented as mean ± SEM; *p < 0.05, **p < 0.001. GSM gamma-secretase modulator

The conditions of data set [5]: monkey, 100 mg/kg oral, first sampled time point, all but one animal.
Data set [6] is described as follows: Adverse events in the human study. The following applies: healthy humans, 800 mg IV single dose or placebo.
Another data set can be described thus: clinical. The following applies: human.
Details of data set [7]: method as in PMID 12897211. Particulars: mice, 50 mg/kg daily for 3 days, 2 h after the last dose; cited from earlier work.
In data set [8] the test system is γ-secretase. More on the design: method as in PMID 11700559, PMID 12897211. The following applies: Tg2576 mice, 50 mg/kg for 3 days; cited from earlier work.
The nature of data set [9]: Plasma drug concentration in mice treated with ibuprofen for 3 days (literature). The following applies: Tg2576 (APP transgenic line), mouse, 50 mg/kg daily for 3 days, from 43 μM and ~5.5 % unbound, read-out: estimated unbound concentration in plasma. Type of data set: in vivo.
For data set [10] the following is noted: mild to moderate AD, 400 mg twice daily, 1 year; cited from earlier work.
Another data set in a line: in vivo. Particulars: female, cynomolgus monkey, po, 100 mg/kg.
Details of data set [11]: method as in PMID 17650315, PMID 20009055. The following applies: late-phase human clinical trial; cited from earlier work.

Turning to `CC(C)CC[C@H](c1ccc(Cl)cc1)N1CC[C@@H](CC(=O)O)C[C@H]1c1ccc(C(F)(F)F)cc1` [GSM-1], the “effect on ratio of Aβ42 to total Aβ” value in the data set on γ-secretase [1] (CHO APP-WT or APP-V717F, 24 h, dose-dependent, p < 0.001) is listed as “significantly reduced”. Moreover, the “concentration giving 50 % reduction of the ratio of Aβ42 to total Aβ” value with γ-secretase [1] (CHO cells expressing APP-WT or APP-V717F, 24 h incubation, ELISA) was determined as 0.2 µM. The “ED50 (in vitro GSM activity)” value in the data set with γ-secretase [1] is on record as “approximately 200 nM”. Further, the “CSF Aβ38 level (mean ± SD)” value on γ-secretase [2] (8 h postdosing, baseline 1033.3 ± 300.0) worked out at 1954.8 ± 698.6 pg/mL. Further, the “CSF Aβ42 level (mean ± SD)” value at γ-secretase [2] (12 h postdosing, baseline 267.1 ± 60.0) came out at 183.5 ± 96.1 pg/mL. Also, the “lowering of brain Aβ42” value with γ-secretase [3] (single dose 3 mg/kg) is on record as 25%. Moreover, in the data set on γ-secretase [3] (single dose 30 mg/kg), the “reduction of brain Aβ42” value is on record as 70%. Moreover, the “effect on Aβ38 levels” value in the data set with γ-secretase [3] (single dose) is recorded as “concomitantly increased”. The “time of maximum reduction in CSF” value on γ-secretase [4] (monkey CSF, 30 mg/kg oral) lay within 8 to 12 h. At γ-secretase [4] (monkey CSF, 30 mg/kg oral single dose), the “effect on CSF total Aβ levels” value was “did not change”. Besides, the “maximal increase in CSF Aβ38 levels” value on γ-secretase [4] (monkey CSF, 30 mg/kg oral single dose, 8 h postdosing) was ~ 90%. The “maximal reduction in CSF Aβ42 levels” value on γ-secretase [4] (monkey CSF, 30 mg/kg oral single dose, 12 h postdosing) is reported as ~ 32%. The “maximal increase of the ratio of Aβ38 to total Aβ in CSF” value at γ-secretase [4] (monkey CSF, 30 mg/kg oral, after 8 h, p < 0.05) stood at 70%. The “ratio of Aβ42 to total Aβ in CSF, relative to baseline” value on γ-secretase [4] (monkey CSF, single dose 30 mg/kg, baseline to postdosing) came out at 65%. The “reduction of the ratio of Aβ42/Aβ40 in plasma” value at γ-secretase [4] (monkey plasma, 30 mg/kg oral, 6 h after dosing) is “up to 40%”. The “time at which the decrease of plasma Aβ42/Aβ40 ratio was first evident” value on γ-secretase [4] (monkey plasma, 30 mg/kg oral, plateaued starting at 4 h) was found to be 2 h. Also, the “ratio of Aβ42 to Aβ40 in plasma, relative to baseline” value at γ-secretase [4] (monkey plasma, single dose 30 mg/kg, baseline to postdosing) turned out to be 60%. In addition, the “effect on ratio of Aβ42/Aβ40 in plasma” value at γ-secretase [4] (monkey plasma, single dose, Fig. 2f) was “markedly decreased”.
For orientation: AUC(0-t) means the area under the concentration-time curve up to a stated or last time point. For the molecule `CC(C)Cc1ccc(C(C)C(=O)O)cc1` (centres unmarked) [ibuprofen], the “ED50 (in vitro GSM activity)” value with γ-secretase [1] is 250 to 500 µM. Further, the “time of highest concentrations in plasma and CSF” value in data set [5] is 2 h. Further, in data set [6], the “adverse events during the study period” value was “no adverse events were observed”. For the same molecule, the AUC(0-t) stood at 831 ± 156 µM·h in “clinical” (both, in vivo, iv, 800 mg); 36.4 ± 11.8 µM·h in the data set “in vivo” (CSF); 3740 ± 924 µM·h in the data set “in vivo” (plasma). Also, the “time of return of plasma levels to baseline” value in “clinical” (800 mg IV) was not above 8 h. In addition, the “time of highest plasma levels” value in “clinical” (800 mg IV, first time sampled) came to 1 h. Also, the “average plasma drug concentration” value in data set [7] was 43 µM. Also, the “effect on Aβ40 levels (reduced or not)” value in the data set on γ-secretase [8] is on record as “not”. Moreover, the “effect on Aβ42 levels” value in the data set with γ-secretase [8] is reported as “significantly reduced”. For the same molecule, the concentration at 3 days in data set [9] is approximately 2370 nM. In addition, the clinical benefit result in data set [10] is reported as “no benefit”.
For the molecule `C[C@@H](C(=O)O)c1ccc(-c2ccccc2)c(F)c1` [tarenflurbil], the clinical efficacy entry in data set [11] is reported as “not to be effective”.
